Assay results reported in PubChem BioAssay (NCI).
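48-hour exposure; five concentrations; linearly interpolated endpoints. Definition used: TGI = concentration required for complete inhibition of growth.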

What was measured:
Assay in all cases: NCI tumour cell line growth inhibition, 48 h
[1] = tested on: PC-3 prostate
[2] = tested on: NCI/ADR-RES ovarian
[3] = tested on: UACC-62 melanoma
[4] = tested on: CAKI-1 renal
[5] = tested on: LOX IMVI melanoma
[6] = tested on: DU-145 prostate
[7] = tested on: HCT-116 colon
[8] = tested on: A549 NSCLC
[9] = tested on: SW-620 colon
[10] = tested on: A498 renal
[11] = tested on: CCRF-CEM leukemia
[12] = tested on: 786-0 renal
[13] = tested on: U251 CNS
[14] = tested on: UO-31 renal
[15] = tested on: SK-MEL-2 melanoma
[16] = tested on: OVCAR-4 ovarian
[17] = tested on: MCF7 breast
[18] = tested on: OVCAR-5 ovarian
[19] = tested on: MDA-MB-231 breast
[20] = tested on: NCI-H460 lung
[21] = tested on: SF-268 CNS
[22] = tested on: SK-OV-3 ovarian
[23] = tested on: SK-MEL-28 melanoma
[24] = tested on: SNB-75 CNS
[25] = tested on: UACC-257 melanoma
[26] = tested on: NCI-H23 lung
[27] = tested on: SK-MEL-5 melanoma
[28] = tested on: HOP-62 NSCLC
[29] = tested on: HS 578T breast
[30] = tested on: IGROV1 ovarian
[31] = tested on: OVCAR-8 ovarian
[32] = tested on: MDA-MB-435
[33] = tested on: OVCAR-3 ovarian
[34] = tested on: NCI-H226 lung
[35] = tested on: T-47D breast
[36] = tested on: EKVX NSCLC
[37] = tested on: MOLT-4 leukemia
[38] = tested on: HCT-15 colon
[39] = tested on: M14 melanoma
[40] = tested on: SNB-19 CNS
[41] = tested on: HL-60(TB) leukemia
[42] = tested on: ACHN renal
[43] = tested on: SF-539 CNS
[44] = tested on: SR leukemia
[45] = tested on: KM12 colon
[46] = tested on: HCC-2998 colon
[47] = tested on: K-562 leukemia
[48] = tested on: COLO 205 colon
[49] = tested on: BT-549 breast
[50] = tested on: MDA-N
[51] = tested on: HT29 colon
[52] = tested on: RXF 393 renal
[53] = tested on: SF-295 CNS
[54] = tested on: TK-10 renal
[55] = tested on: SN12C renal
[56] = tested on: HOP-92 NSCLC
[57] = tested on: NCI-H522 lung
[58] = tested on: RPMI-8226 leukemia
[59] = tested on: MALME-3M melanoma

Cn1c(=O)cc(NNc2ccc(Cl)c(Cl)c2)[nH]c1=O
TGI [1]: 25.4 µM | TGI [2]: 64.1 µM | TGI [3]: 16.8 µM | TGI [4]: 27.3 µM | TGI [5]: 28.1 µM | TGI [6]: > 100 µM | TGI [7]: 20.5 µM | TGI [8]: 36 µM | TGI [9]: 21.1 µM | TGI [10]: > 100 µM | TGI [11]: 37.3 µM | TGI [12]: 25.9 µM | TGI [13]: 24.8 µM | TGI [14]: 24.4 µM | TGI [15]: 33.6 µM | TGI [16]: 28.3 µM | TGI [17]: 21.4 µM | TGI [18]: 31.5 µM | TGI [19]: 23.9 µM | TGI [20]: 20.3 µM | TGI [21]: 75.9 µM | TGI [22]: > 100 µM | TGI [23]: 25.1 µM | TGI [24]: 48.4 µM | TGI [25]: 28.6 µM | TGI [26]: 90.7 µM | TGI [27]: 19.3 µM | TGI [28]: 31.3 µM | TGI [29]: 56 µM | TGI [30]: 23.5 µM | TGI [31]: 31 µM | TGI [32]: 14.1 µM | TGI [33]: 28.8 µM | TGI [34]: 55.9 µM | TGI [35]: 21.1 µM | TGI [36]: 24.2 µM | TGI [37]: 58.2 µM | TGI [38]: 18.5 µM | TGI [39]: 20.3 µM | TGI [40]: > 100 µM | TGI [41]: 91 µM | TGI [42]: 19.9 µM | TGI [43]: 39.7 µM | TGI [44]: > 100 µM | TGI [45]: 30.2 µM | TGI [46]: 16.6 µM | TGI [47]: 23.1 µM | TGI [48]: 35.8 µM | TGI [49]: 29.9 µM | TGI [50]: 23.3 µM | TGI [51]: 40.9 µM | TGI [52]: 38.8 µM | TGI [53]: 43.2 µM | TGI [54]: 30.6 µM | TGI [55]: 21.2 µM | TGI [56]: 28.5 µM

C=C1C[C@@H]2O[C@H]3[C@H]4[C@@H](C[C@@H](C)[C@@H](OC(C)=O)[C@H]42)[C@@H](C)CO[C@@]3(C)[C@H](OC(=O)CCCCCCC)CC1=O
TGI [1]: 22.5 µM | TGI [2]: 35.5 µM | TGI [3]: 32.1 µM | TGI [57]: 42.6 µM | TGI [4]: 33.5 µM | TGI [5]: 30.1 µM | TGI [6]: 31.4 µM | TGI [7]: 32 µM | TGI [8]: 35.2 µM | TGI [9]: 29.8 µM | TGI [10]: 32.5 µM | TGI [11]: 23.8 µM | TGI [12]: 29.1 µM | TGI [13]: 32.5 µM | TGI [14]: 29.5 µM | TGI [15]: 35 µM | TGI [17]: 35.9 µM | TGI [18]: 21.1 µM | TGI [19]: 36.7 µM | TGI [20]: 24.2 µM | TGI [21]: 36.9 µM | TGI [23]: 28.7 µM | TGI [24]: 24.8 µM | TGI [25]: 30.7 µM | TGI [26]: 40.1 µM | TGI [27]: 28.4 µM | TGI [28]: 29.8 µM | TGI [29]: 39.7 µM | TGI [30]: 48.4 µM | TGI [31]: 30.9 µM | TGI [32]: 30.8 µM | TGI [33]: 32 µM | TGI [34]: 42.9 µM | TGI [35]: 31.5 µM | TGI [36]: 32.9 µM | TGI [37]: 40.8 µM | TGI [38]: 28.9 µM | TGI [39]: 29.1 µM | TGI [40]: > 100 µM | TGI [42]: 29.5 µM | TGI [43]: 38 µM | TGI [44]: 37.2 µM | TGI [45]: 26.2 µM | TGI [46]: 30.8 µM | TGI [48]: 27.3 µM | TGI [49]: 36.9 µM | TGI [50]: 31 µM | TGI [51]: > 100 µM | TGI [53]: 33.6 µM | TGI [58]: 13.1 µM | TGI [54]: 32.7 µM | TGI [55]: 30.2 µM

CN(N)c1nc(N)c(C#N)c(C#N)c1C#N
TGI [1]: > 10 µM | TGI [2]: > 10 µM | TGI [3]: > 10 µM | TGI [57]: > 10 µM | TGI [4]: > 10 µM | TGI [5]: > 10 µM | TGI [6]: > 10 µM | TGI [7]: > 10 µM | TGI [8]: > 10 µM | TGI [9]: > 10 µM | TGI [11]: > 10 µM | TGI [12]: > 10 µM | TGI [13]: > 10 µM | TGI [16]: > 10 µM | TGI [17]: > 10 µM | TGI [18]: > 10 µM | TGI [19]: > 10 µM | TGI [59]: > 10 µM | TGI [21]: > 10 µM | TGI [22]: > 10 µM | TGI [23]: > 10 µM | TGI [24]: > 10 µM | TGI [25]: > 10 µM | TGI [26]: > 10 µM | TGI [27]: > 10 µM | TGI [28]: > 10 µM | TGI [29]: > 10 µM | TGI [30]: > 10 µM | TGI [31]: > 10 µM | TGI [32]: > 10 µM | TGI [33]: > 10 µM | TGI [35]: > 10 µM | TGI [37]: > 10 µM | TGI [38]: > 10 µM | TGI [39]: > 10 µM | TGI [40]: > 10 µM | TGI [41]: > 10 µM | TGI [42]: > 10 µM | TGI [43]: > 10 µM | TGI [44]: > 10 µM | TGI [45]: > 10 µM | TGI [46]: > 10 µM | TGI [47]: > 10 µM | TGI [48]: > 10 µM | TGI [49]: > 10 µM | TGI [50]: > 10 µM | TGI [51]: > 10 µM | TGI [53]: > 10 µM | TGI [58]: > 10 µM | TGI [54]: > 10 µM | TGI [55]: > 10 µM | TGI [56]: > 10 µM

CS(=O)(=O)Nc1ccc2ccccc2c1
TGI [1]: > 100 µM | TGI [2]: > 100 µM | TGI [3]: > 100 µM | TGI [57]: > 100 µM | TGI [4]: > 100 µM | TGI [5]: > 100 µM | TGI [6]: > 100 µM | TGI [7]: > 100 µM | TGI [8]: > 100 µM | TGI [9]: > 100 µM | TGI [10]: > 100 µM | TGI [11]: > 100 µM | TGI [12]: > 100 µM | TGI [13]: > 100 µM | TGI [14]: > 100 µM | TGI [15]: > 100 µM | TGI [16]: > 100 µM | TGI [17]: > 100 µM | TGI [18]: > 100 µM | TGI [19]: > 100 µM | TGI [59]: > 100 µM | TGI [20]: > 100 µM | TGI [21]: > 100 µM | TGI [22]: > 100 µM | TGI [23]: > 100 µM | TGI [24]: > 100 µM | TGI [25]: > 100 µM | TGI [26]: > 100 µM | TGI [27]: > 100 µM | TGI [28]: > 100 µM | TGI [29]: > 100 µM | TGI [30]: > 100 µM | TGI [31]: > 100 µM | TGI [32]: > 100 µM | TGI [33]: > 100 µM | TGI [34]: > 100 µM | TGI [35]: > 100 µM | TGI [36]: > 100 µM | TGI [37]: > 100 µM | TGI [38]: > 100 µM | TGI [39]: > 100 µM | TGI [40]: > 100 µM | TGI [41]: > 100 µM | TGI [42]: > 100 µM | TGI [43]: > 100 µM | TGI [44]: > 100 µM | TGI [45]: > 100 µM | TGI [46]: > 100 µM | TGI [47]: > 100 µM | TGI [48]: > 100 µM | TGI [49]: > 100 µM | TGI [50]: > 100 µM | TGI [51]: > 100 µM | TGI [53]: > 100 µM | TGI [58]: > 100 µM | TGI [54]: > 100 µM | TGI [55]: > 100 µM | TGI [56]: > 100 µM
